This is an account of results in patent US9980943B2, “Methods of treating muscular dystrophy” (BOARD OF REGENTS OF THE NEVADA SYSTEM OF HIGHER EDUCATION, …, priority 2013, dated 2018).

Common to all, as to assay type: cell-based, mouse
The test system of assay [1] is α7 integrin (LacZ reporter in α7+/LacZ myotubes). The assay is described as follows: Myotube α7 integrin FDG assay (Burkin assay in myotubes, 96-well). Conditions: myotubes; for fold induction at 0.5 µM / fold induction at 1 µM / fold induction at 5 µM / fold induction at 10 µM / fold induction at 20 µM / fold induction at 40 µM: Mus musculus, Myotube.
Assay [2] relates to α7 integrin (LacZ reporter in α7βgal+/− myoblasts). Put plainly: Myoblast α7+/LacZ integrin FDG assay (Burkin assay in myoblasts, 96-well). Conditions: α7+/LacZ myoblasts, 96-well; for fold induction at 0.5 µM / fold induction at 1 µM / fold induction at 5 µM / fold induction at 10 µM / fold induction at 20 µM / fold induction at 40 µM: Mus musculus, Myoblast, 48 h.
Assay [3] has as its system β-galactosidase in CMV-LacZ C2C12 myotubes. The assay is described as follows: CMV-LacZ secondary screen in C2C12 myotubes (β-Gal stabilizing assay). The conditions noted are these: for fold induction at 5 µM / fold induction at 10 µM / fold induction at 20 µM / fold induction at 40 µM: Mus musculus; for fold induction at 5 µM: C2C12, read-out: CMV-LACZ in Myotubes, signal relative to DMSO, 5 uM; for fold induction at 5 µM / fold induction at 10 µM / fold induction at 20 µM / fold induction at 40 µM / CMV-LACZ in Myotubes, signal relative to DMSO: C2C12 CMV-LacZ myotubes, fold relative to DMSO; for fold induction at 10 µM: C2C12, read-out: CMV-LACZ in Myotubes, signal relative to DMSO, 10 uM; for fold induction at 20 µM: C2C12, read-out: CMV-LACZ in Myotubes, signal relative to DMSO, 20 uM; for fold induction at 40 µM: C2C12, read-out: CMV-LACZ in Myotubes, signal relative to DMSO, 40 uM; for CMV-LACZ in Myotubes (β-galactosidase activity relative to DMSO): CMV-LacZ C2C12 myotubes, 96-well format. Summed up:
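Stable CMV-LacZ C2C12 clone; six-point curve 0.5–40 μM; duplicates.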

Where two headings read alike, the source gives them in different places.

As to `Cc1c(C(=O)N2CCCCC2)c(S(=O)(=O)Nc2cccc(Br)c2)c(C)n1C` [MLS001096269-01], the fold induction at 0.5 µM in assay [1] (0.5 uM, read-out: Burkin Assay in Myotubes (signal relative to DMSO)) is 0.999; in assay [2] (0.5 uM, read-out: Burkin Assay in Myoblasts, value relative to DMSO), 1.04. In addition, the fold induction at 1 µM in assay [1] (1 uM, read-out: Burkin Assay in Myotubes (signal relative to DMSO)) was 1.09; in assay [2] (1 uM, read-out: Burkin Assay in Myoblasts, value relative to DMSO), 1.01. Besides, the fold induction at 5 µM is 1.31 in assay [1] (5 uM, read-out: Burkin Assay in Myotubes (signal relative to DMSO)); 0.941 in assay [2] (5 uM, read-out: Burkin Assay in Myoblasts, value relative to DMSO); 1.09 in assay [3]. The fold induction at 10 µM in assay [1] (10 uM, read-out: Burkin Assay in Myotubes (signal relative to DMSO)) was found to be 1.12; in assay [2] (10 uM, read-out: Burkin Assay in Myoblasts, value relative to DMSO) it was 1.03; in assay [3], 0.74. Also, the fold induction at 20 µM in assay [1] (20 uM, read-out: Burkin Assay in Myotubes (signal relative to DMSO)) was found to be 1.13; in assay [2] (20 uM, read-out: Burkin Assay in Myoblasts, value relative to DMSO), 1.05; in assay [3], 0.986. Further, the fold induction at 40 µM was found to be 0.912 in assay [1] (40 uM, read-out: Burkin Assay in Myotubes (signal relative to DMSO)); 1.2 in assay [2] (40 uM, read-out: Burkin Assay in Myoblasts, value relative to DMSO); 0.775 in assay [3].
With `COc1ccccc1C(=O)Nc1nc2cc3c(cc2s1)OCO3` [MLS000419555-01], the fold induction at 0.5 µM in assay [1] (0.5 uM, read-out: Burkin Assay in Myotubes, α7 integrin LacZ reporter signal relative to DMSO) came out at 1.05; in assay [2] (0.5 uM, read-out: Burkin Assay in Myoblasts, signal relative to DMSO), 1.19. Also, the fold induction at 1 µM is 1.02 in assay [1] (1 uM, read-out: Burkin Assay in Myotubes, α7 integrin LacZ reporter signal relative to DMSO) and 1.2 in assay [2] (1 uM, read-out: Burkin Assay in Myoblasts, signal relative to DMSO). For the same compound, the fold induction at 5 µM in assay [1] (5 uM, read-out: Burkin Assay in Myotubes, α7 integrin LacZ reporter signal relative to DMSO) is 1.15; in assay [2] (5 uM, read-out: Burkin Assay in Myoblasts, signal relative to DMSO), 1.07; in assay [3], 1.22. In addition, the fold induction at 10 µM in assay [1] (10 uM, read-out: Burkin Assay in Myotubes, α7 integrin LacZ reporter signal relative to DMSO) was determined as 1.09; in assay [2] (10 uM, read-out: Burkin Assay in Myoblasts, signal relative to DMSO), 1.03; in assay [3], 1.21. Moreover, the fold induction at 20 µM in assay [1] (20 uM, read-out: Burkin Assay in Myotubes, α7 integrin LacZ reporter signal relative to DMSO) was 1.01; in assay [2] (20 uM, read-out: Burkin Assay in Myoblasts, signal relative to DMSO), 0.948; in assay [3], 1.22. Also, the fold induction at 40 µM in assay [1] (40 uM, read-out: Burkin Assay in Myotubes, α7 integrin LacZ reporter signal relative to DMSO) was determined as 1.02; in assay [2] (40 uM, read-out: Burkin Assay in Myoblasts, signal relative to DMSO), 0.797; in assay [3], 1.22.
As to `O=C(Nc1ccccc1)Nc1ccc(Cl)c(S(=O)(=O)N2CCOCC2)c1` [MLS000773700-01], the “Burkin Assay in Myotubes (signal relative to DMSO)” value in assay [1] (0.5 uM) is recorded as 1.008; in assay [1] (1 uM) it was 1.019; in assay [1] (5 uM), 0.7118; in assay [1] (10 uM), 0.9516; in assay [1] (20 uM) it was 0.9895; in assay [1] (40 uM), 0.472. The “Burkin Assay in Myoblasts, value relative to DMSO” value in assay [2] (0.5 uM) was 0.9335; in assay [2] (1 uM), 1.0257; in assay [2] (5 uM) it was 0.9059; in assay [2] (10 uM), 0.8657; in assay [2] (20 uM) it was 0.9227; in assay [2] (40 uM) it was 0.8721. Further, the “CMV-LACZ in Myotubes (β-galactosidase activity relative to DMSO)” value in assay [3] (5 uM) worked out at 1.126; in assay [3] (10 uM) it was 1.1166; in assay [3] (20 uM), 0.929; in assay [3] (40 uM), 0.4092.
Consider `CCCS(=O)(=O)N1CCCC(C(=O)c2cccc(Cl)c2)C1` (stereo not drawn) [MLS000862690-01], for which the “Burkin Assay in Myotubes (signal relative to DMSO)” value in assay [1] (0.5 uM) was 1.125; in assay [1] (1 uM), 0.9576; in assay [1] (5 uM), 0.5941; in assay [1] (10 uM), 0.9481; in assay [1] (20 uM) it was 1.0131; in assay [1] (40 uM), 1.0763. Also, the “Burkin Assay in Myoblasts, value relative to DMSO” value came to 1.029 in assay [2] (0.5 uM); 1.027 in assay [2] (1 uM); 1.009 in assay [2] (5 uM); 1.004 in assay [2] (10 uM); 0.8717 in assay [2] (20 uM); 0.9753 in assay [2] (40 uM). Moreover, the “CMV-LACZ in Myotubes, signal relative to DMSO” value in assay [3] (5 uM) came out at 0.8684; in assay [3] (10 uM) it was 0.8943; in assay [3] (20 uM), 0.9323; in assay [3] (40 uM), 1.018.
Consider `CC(=O)Nc1nonc1-c1nc2ccccc2n1CCC(C)C` [MLS000085522-01], for which the “Burkin Assay in Myotubes, α7 integrin LacZ reporter signal relative to DMSO” value in assay [1] (0.5 uM) was determined as 0.9622; in assay [1] (1 uM) it was 0.8415; in assay [1] (5 uM), 0.872; in assay [1] (10 uM), 0.9249; in assay [1] (20 uM) it was 1.029; in assay [1] (40 uM), 0.556. The “Burkin Assay in Myoblasts, signal relative to DMSO” value was 0.9927 in assay [2] (0.5 uM); 0.872 in assay [2] (1 uM); 1.118 in assay [2] (5 uM); 0.9531 in assay [2] (10 uM); 0.9728 in assay [2] (20 uM); 0.7481 in assay [2] (40 uM). Besides, the “CMV-LACZ in Myotubes, signal relative to DMSO” value in assay [3] (5 uM) is listed as 1.092; in assay [3] (10 uM), 0.9804; in assay [3] (20 uM), 0.7733; in assay [3] (40 uM), 0.9509.
For `COc1ccc(C(=O)N/C(=C/c2cccnc2)C(=O)N2CCN(C)CC2)cc1OC` [MLS001140657-01], the “Burkin Assay in Myotubes (signal relative to DMSO)” value was 1.034 in assay [1] (0.5 uM); 0.9506 in assay [1] (1 uM); 1.083 in assay [1] (5 uM); 0.9981 in assay [1] (10 uM); 0.9948 in assay [1] (20 uM); 0.9708 in assay [1] (40 uM). Moreover, the “Burkin Assay in Myoblasts, value relative to DMSO” value in assay [2] (0.5 uM) is listed as 0.9918; in assay [2] (1 uM), 0.962; in assay [2] (5 uM), 0.9528; in assay [2] (10 uM), 0.8768; in assay [2] (20 uM), 0.8568; in assay [2] (40 uM), 0.7978. Moreover, the “CMV-LACZ in Myotubes (β-galactosidase activity relative to DMSO)” value in assay [3] (5 uM) is given as 1.053; in assay [3] (10 uM), 1.046; in assay [3] (20 uM), 1.05; in assay [3] (40 uM), 1.075.
